Drawing on ChEMBL document CHEMBL1155853, “N-(thiazol-2-yl)-2-thiophene carboxamide derivatives as Abl inhibitors identified by a pharmacophore-based database screening of commercially available compounds” (Bioorg Med Chem Lett, 2008), this text covers Ki for 18 compounds.

Each structure is given as a SMILES string.

The target in the assay is Tyrosine-protein kinase ABL1 (Homo sapiens, UniProt P00519). The assay is described as follows: Inhibition of Abl kinase by cell free assay.
Chain of Tyrosine-protein kinase ABL1 (P00519 whole entry): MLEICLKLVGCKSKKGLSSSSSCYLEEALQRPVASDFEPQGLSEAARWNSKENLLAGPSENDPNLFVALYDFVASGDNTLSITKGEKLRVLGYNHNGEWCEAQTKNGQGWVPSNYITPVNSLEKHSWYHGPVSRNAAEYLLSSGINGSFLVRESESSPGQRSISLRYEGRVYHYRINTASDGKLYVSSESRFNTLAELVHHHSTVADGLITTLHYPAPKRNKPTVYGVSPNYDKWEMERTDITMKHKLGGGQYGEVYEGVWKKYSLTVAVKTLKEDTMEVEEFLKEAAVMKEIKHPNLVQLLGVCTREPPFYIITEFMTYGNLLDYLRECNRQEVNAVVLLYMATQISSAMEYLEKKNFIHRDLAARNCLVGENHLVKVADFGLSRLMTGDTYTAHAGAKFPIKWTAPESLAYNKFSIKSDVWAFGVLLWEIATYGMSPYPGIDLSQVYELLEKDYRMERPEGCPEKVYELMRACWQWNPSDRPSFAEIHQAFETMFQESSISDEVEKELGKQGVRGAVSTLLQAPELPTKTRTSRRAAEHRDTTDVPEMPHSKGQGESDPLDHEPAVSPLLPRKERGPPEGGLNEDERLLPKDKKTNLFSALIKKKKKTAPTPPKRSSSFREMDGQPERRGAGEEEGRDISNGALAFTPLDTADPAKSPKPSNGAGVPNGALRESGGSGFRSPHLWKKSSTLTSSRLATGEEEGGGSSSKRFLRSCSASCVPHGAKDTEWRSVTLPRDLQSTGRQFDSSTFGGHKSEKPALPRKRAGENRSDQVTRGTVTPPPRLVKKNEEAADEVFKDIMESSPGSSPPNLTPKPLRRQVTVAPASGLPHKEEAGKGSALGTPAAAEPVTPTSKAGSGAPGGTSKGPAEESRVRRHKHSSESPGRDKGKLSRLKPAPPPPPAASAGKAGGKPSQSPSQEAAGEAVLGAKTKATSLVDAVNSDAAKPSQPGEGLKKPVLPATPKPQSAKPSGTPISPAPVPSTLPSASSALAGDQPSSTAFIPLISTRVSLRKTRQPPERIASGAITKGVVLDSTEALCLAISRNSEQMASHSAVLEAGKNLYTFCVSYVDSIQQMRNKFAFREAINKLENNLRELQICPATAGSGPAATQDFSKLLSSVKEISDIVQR
`COc1ccc2c(c1)Cc1sc(NC(=O)c3cccs3)nc1-2`: the affinity, expressed as Ki, was 68 nM.

With `COc1ccc(Cc2cnc(NC(=O)c3cccs3)s2)cc1`, the inhibition constant Ki (as a rule, a dissociation constant, usually derived from enzyme kinetics or from competition with a known ligand) came to 16 nM.

For the compound `O=C(Nc1ncc(Cc2ccccc2F)s1)c1cccs1`, the affinity, expressed as Ki, was 170 nM.

`O=C(Nc1ncc(Cc2ccc(Cl)cc2)s1)c1cccs1` returned an inhibition constant Ki of 624 nM.

Consider `O=C(Nc1ncc(-c2ccc(F)cc2)s1)c1cccs1`, for which the inhibition constant (Ki) was 1650 nM.

For `O=C(Nc1ncc(-c2ccc(Cl)cc2)s1)c1cccs1`, the Ki was 791 nM.

For `O=C(Nc1ncc(Cc2ccc(F)cc2)s1)c1cccs1`, the Ki came to 130 nM.

Turning to `O=C(Nc1nnc(COc2ccccc2)s1)c1cccs1`, affinity was put at a Ki of 278 nM.

In turn, `O=C(Nc1ncc(Cc2cccc(C(F)(F)F)c2)s1)c1cccs1` displayed an inhibition constant (Ki) of 136 nM.

`O=C(Nc1nnc(Cc2ccccc2)s1)c1cccs1` returned a Ki of 360 nM.

On to `O=C(Nc1ncc(Cc2ccc(Cl)cc2Cl)s1)c1cccs1`, for which the affinity, expressed as Ki, was 3470 nM.

`Cc1ccc(Cc2cnc(NC(=O)c3cccs3)s2)cc1` gave an inhibitory constant (Ki) of 249 nM.

Compound `O=C(Nc1ncc(Cc2ccccc2)s1)c1cccs1` came in with a Ki of 90 nM.

Turning to `O=C(Nc1ncc(Cc2ccccc2Cl)s1)c1cccs1`, the inhibition constant (Ki) amounted to 245 nM.

Compound `O=C(Nc1ncc(Cc2cccc(Cl)c2)s1)c1cccs1` yielded a Ki of 97 nM.

Compound `O=C(Nc1ncc(Cc2cc(C(F)(F)F)ccc2Cl)s1)c1cccs1` showed a Ki of 845 nM.

The compound `Cc1cccc(Cc2cnc(NC(=O)c3cccs3)s2)c1` registered a Ki of 59 nM.

In turn, `O=C(Nc1ncc(Cc2cc(Cl)ccc2Cl)s1)c1cccs1` yielded an inhibition constant Ki of 50 nM.
